Results on 18 compounds are retold here after patent US8227492B2, “Sulfoxamine derivatives as factor Xa inhibitors” (Cadila Healthcare Limited, priority 2007, dated 2012).

One experiment concerns the target Factor Xa (Homo sapiens, UniProt P00742). As to the kind of experiment: In vitro Factor Xa inhibition, chromogenic assay. Type of experiment: biochemical. To be noted: 0.1 μM compound; for inhibition at 0.1 µM: read-out: % Factor Xa inhibition at 0.1 μM using chromogenic assay. As to the method:
(§1) In vitro Factor Xa inhibitory activities were determined as per standard protocols and the results of representative compounds are provided in tables 1 and 2 below as proof of the efficacies of the novel class of compounds disclosed above.

A further experiment concerns human plasma. As to the kind of experiment: Prothrombin time doubling concentration (PTCT2) using human plasma. Type of experiment: biochemical. As to the method: as §1

Factor Xa, sequence (P00742 235-488 limits assumed): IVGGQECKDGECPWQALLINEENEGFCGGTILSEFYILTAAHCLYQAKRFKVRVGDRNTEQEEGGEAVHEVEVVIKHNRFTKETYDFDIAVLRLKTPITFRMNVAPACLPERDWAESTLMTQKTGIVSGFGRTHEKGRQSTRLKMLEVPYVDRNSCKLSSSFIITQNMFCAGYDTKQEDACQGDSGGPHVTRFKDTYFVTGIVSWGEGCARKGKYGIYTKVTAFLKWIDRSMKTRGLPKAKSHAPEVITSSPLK
Factor Xa, sequence (P00742 41-179 partner limits assumed): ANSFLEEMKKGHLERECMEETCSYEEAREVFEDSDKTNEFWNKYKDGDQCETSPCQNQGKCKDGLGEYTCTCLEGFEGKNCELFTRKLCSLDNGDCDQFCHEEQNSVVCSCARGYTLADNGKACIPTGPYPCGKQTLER

As to `CS(=O)(=NC(=O)c1ccncc1)c1ccccc1-c1ccc(C(=O)Nc2ccc(Cl)cc2C(=O)Nc2ccc(Cl)cn2)cc1` (stereo not drawn) [Example 24, S-(2-[4-(N-{2-[N-(5-chloro-2-pyridyl)carbamoyl]-4-chlorophenyl}carbamoyl)phenyl]-phenyl)-S-methyl-N-(4-pyridylcarbonyl)sulfoximide], the inhibition (as a rule, the percentage by which the read-out fell short of the control) at 0.1 µM on Factor Xa worked out at 85%. With `COc1ccc(NC(=O)c2ccc(S(C)(=O)=NC(=O)CN(C)C)cc2)c(C(=O)Nc2ccc(Cl)cn2)c1` (stereo not drawn) [Example 40, S-[4-(N-{2-[N-(5-chloro(2-pyridyl))carbamoyl]-4-methoxyphenyl}carbamoyl)phenyl]-S-methyl-N-(2-dimethylamino-acetyl)sulfoximide], on Factor Xa, the inhibition at 0.1 µM was 56%. Also, the “PTCT2 (Conc. required to double the prothrombin time using human plasma)” value (“PTCT2” below) with human plasma turned out to be 1.2 µM.

With `CCN(CC)CCN=S(C)(=O)c1ccc(C(=O)Nc2ccc(Cl)cc2C(=O)Nc2ccc(Cl)cn2)cc1` (stereo not drawn) [Example 74, S-[4-(N-{2-[N-(5-chloro(2-pyridyl))carbamoyl]-4-chlorophenyl}carbamoyl)phenyl]-S-methyl-N-(2-(diethylamino)ethyl)sulfoximide], the inhibition at 0.1 µM at Factor Xa was found to be 77%. For the same compound, the “PTCT2” value in the experiment on human plasma was 1.23 µM. Consider `CS(=O)(=NC(=O)C1CCNCC1)c1ccccc1-c1ccc(C(=O)Nc2ccc(Cl)cc2C(=O)Nc2ccc(Cl)cn2)cc1` (stereo not drawn) [Example 26, S-(2-[4-(N-{2-[N-(5-chloro-2-pyridyl)carbamoyl]-4-chlorophenyl}carbamoyl)phenyl]-phenyl)-S-methyl-N-(4-piperidinylcarbonyl)sulfoximide], for which, on Factor Xa, the inhibition at 0.1 µM worked out at 69%. In the case of `CS(=N)(=O)c1ccccc1-c1ccc(C(=O)Nc2ccc(Cl)cc2C(=O)Nc2ccc(Cl)cn2)cc1` (stereo not drawn) [Example 4, S-(2-[4-(N-{2-[N-(5-chloro-2-pyridyl)carbamoyl]-4-chlorophenyl}carbamoyl)phenyl]-phenyl)-S-methyl sulfoximide], at Factor Xa, the inhibition at 0.1 µM was determined as 93%. For the same compound, the “PTCT2” value with human plasma amounted to 4.1 µM. For `CS(=O)(=NC(=O)CN1CCCC1)c1ccc(C(=O)Nc2ccc(Cl)cc2C(=O)Nc2ccc(Cl)cn2)cc1` (stereo not drawn) [Example 50, S-[4-(N-{2-[N-(5-chloro(2-pyridyl))carbamoyl]-4-chlorophenyl}carbamoyl)phenyl]-S-methyl-N-[(2-pyrrolidin-1-yl)-acetyl]sulfoximide] the same measures were 64% and 0.68 µM. Take “S-(2-[4-(N-{2-[N-(5-chloro-2-pyridyl)carbamoyl]-4-chlorophenyl}carbamoyl)phenyl]-phenyl)-S-methyl-N-[2-(4-aminopiperidinyl)-acetyl]sulfoximide [Example 56]”: the “% Factor Xa inhibition at 0.1 μM using chromogenic assay” value on Factor Xa came out at 81%. As to `CN(C)CCN=S(C)(=O)c1ccc(C(=O)Nc2ccc(Cl)cc2C(=O)Nc2ccc(Cl)cn2)cc1` (stereo not drawn) [Example 76, S-[4-(N-{2-[N-(5-chloro(2-pyridyl))carbamoyl]-4-chlorophenyl}carbamoyl)phenyl]-S-methyl-N-[2-dimethylamino-ethyl]sulfoximide], the inhibition at 0.1 µM at Factor Xa is 66%. For the same compound, the “PTCT2” value in the experiment with human plasma was found to be 1.14 µM. `CCN(CC)CC(=O)N=S(C)(=O)c1ccccc1-c1ccc(C(=O)Nc2ccc(Cl)cc2C(=O)Nc2ccc(Cl)cn2)cc1` (stereo not drawn) [Example 43, S-(2-[4-(N-{2-[N-(5-chloro-2-pyridyl)carbamoyl]-4-chlorophenyl}carbamoyl)phenyl]-phenyl)-S-methyl-N-(2-diethylamino-acetyl)sulfoximide]: the inhibition at 0.1 µM at Factor Xa was 79%. Take `CS(=O)(=NC(=O)CN1CCCCC1)c1ccccc1-c1ccc(C(=O)Nc2ccc(Cl)cc2C(=O)Nc2ccc(Cl)cn2)cc1` (stereo not drawn) [Example 53, S-(2-[4-(N-{2-[N-(5-chloro-2-pyridyl)carbamoyl]-4-chlorophenyl}carbamoyl)phenyl]-phenyl)-S-methyl-N-[(2-piperidin-1-yl)-acetyl]sulfoximide]: the inhibition at 0.1 µM on Factor Xa was 79%. Still for that read-out and setting: with `CS(=O)(=O)N=S(C)(=O)c1ccccc1-c1ccc(C(=O)Nc2ccc(Cl)cc2C(=O)Nc2ccc(Cl)cn2)cc1` (stereo not drawn) [Example 14, S-(2-[4-(N-{2-[N-(5-chloro-2-pyridyl)carbamoyl]-4-chlorophenyl}carbamoyl)phenyl]-phenyl)-S-methyl-N-methanesulfonyl sulfoximide] the figure was 84%; with `CCN1CCC(C(=O)N=S(C)(=O)c2ccccc2-c2ccc(C(=O)Nc3ccc(Cl)cc3C(=O)Nc3ccc(Cl)cn3)cc2)CC1` (stereo not drawn) [Example 28, S-(2-[4-(N-{2-[N-(5-chloro-2-pyridyl)carbamoyl]-4-chlorophenyl}carbamoyl)phenyl]-phenyl)-S-methyl-N-(1-ethyl-piperidine-4-carbonyl)sulfoximide], 82%. Regarding `CS(=O)(=NCCN1CCCC1)c1ccc(C(=O)Nc2ccc(Cl)cc2C(=O)Nc2ccc(Cl)cn2)cc1` (stereo not drawn) [Example 75, S-[4-(N-{2-[N-(5-chloro(2-pyridyl))carbamoyl]-4-chlorophenyl}carbamoyl)phenyl]-S-methyl-N-(2-(pyrrolidin-1-yl)ethyl)sulfoximide], the inhibition at 0.1 µM at Factor Xa is 74%. Besides, the “PTCT2” value in the experiment with human plasma was 0.98 µM. Take `CS(=N)(=O)c1ccc(C(=O)Nc2ccc(Cl)cc2C(=O)Nc2ccc(Cl)cn2)cc1` (stereo not drawn) [Example 1, S-[4-(N-{2-[N-(5-chloro(2-pyridyl))carbamoyl]-4-chlorophenyl}carbamoyl)phenyl]-S-methyl Sulfoximide]: on Factor Xa, the inhibition at 0.1 µM worked out at 75%. As to `CCN(CC)CC(=O)N=S(C)(=O)c1ccc(C(=O)Nc2ccc(Cl)cc2C(=O)Nc2ccc(Cl)cn2)cc1` (stereo not drawn) [Example 42, S-[4-(N-{2-[N-(5-chloro(2-pyridyl))carbamoyl]-4-chlorophenyl}carbamoyl)phenyl]-S-methyl-N-(2-diethylamino-acetyl)sulfoximide], the inhibition at 0.1 µM on Factor Xa is 70%. Further, the “PTCT2” value in the experiment with human plasma turned out to be 0.7 µM. For `CN(C)CC(=O)N=S(C)(=O)c1ccccc1-c1ccc(C(=O)Nc2ccc(Cl)cc2C(=O)Nc2ccc(Cl)cn2)cc1` (stereo not drawn) [Example 41, S-(2-[4-(N-{2-[N-(5-chloro-2-pyridyl)carbamoyl]-4-chlorophenyl}carbamoyl)phenyl]-phenyl)-S-methyl-N-(2-dimethylamino-acetyl)sulfoximide] the same measures were 95% and 1.9 µM. In the case of `COc1cc(Cl)cc(C(=O)Nc2ccc(Cl)cn2)c1NC(=O)c1ccc(-c2ccccc2S(C)(=N)=O)cc1` (stereo not drawn) [Example 5, S-(2-[4-(N-{2-[N-(5-chloro-2-pyridyl)carbamoyl]-4-chloro-6-methoxyphenyl}carbamoyl)phenyl]-phenyl)-S-methyl Sulfoximide], on Factor Xa, the inhibition at 0.1 µM was 95%. In addition, in the experiment on human plasma, the “PTCT2” value came to 0.69 µM.

On to `CS(=O)(=NC(=O)CN1CCCCC1)c1ccc(C(=O)Nc2ccc(Cl)cc2C(=O)Nc2ccc(Cl)cn2)cc1` (stereo not drawn) [Example 52, S-[4-(N-{2-[N-(5-chloro(2-pyridyl))carbamoyl]-4-chlorophenyl}carbamoyl)phenyl]-S-methyl-N-[(2-piperidin-1-yl)-acetyl]sulfoximide], for which the inhibition at 0.1 µM at Factor Xa was 60%.
